Laboratory results from patent US20110077212A1, “THERAPEUTIC USES OF SGLT2 INHIBITORS” (Theracos, Inc., priority 2009, published 2011).
Values joined by “and” are separate entries in the source; they are usually repeats but may differ in a detail not shown here. Identical values can stand only once. Counter-ions that a name gives are not always drawn.

How the values were obtained:
[1] = test system: SD Rats Fed a Pioglitazone (0.03%) Containing Diet; assay: Plasma volume (hematocrit) of SD rats fed a pioglitazone-containing diet for 7 days; type: in vivo, Sprague-Dawley rats; conditions: for Plasma expansion versus vehicle treated rats (in words): 7 days pioglitazone diet, compound in drinking water; for Plasma Volume % DAY 1: day 1 (first day of pioglitazone 0.03% diet and compound in drinking water), amiloride 1.5 mg/kg; for Plasma Volume % DAY 1 / Plasma Volume % DELTA / Plasma Volume % DAY 7: TEST COMPOUND 4.5 mg/kg, mean ± SEM; for Plasma Volume % DELTA: day 7 minus day 1, pioglitazone 0.03% diet; for Plasma Volume % DELTA / Plasma Volume % DAY 7: amiloride 1.5 mg/kg in drinking water; for Plasma Volume % DAY 7: day 7 of pioglitazone 0.03% diet
Description: (§1) […] On day −5 rats and water bottles were weighed and placed in the cage with ad lib access to standard rodent chow. Body weights were used to assign rats to counter-balanced groups. Daily water consumption was estimated after weighing bottles again on day −1 and used to determine the appropriate drug concentrations to achieve the desired daily doses. On day 1, rats were weighed and then received an ad mixed diet (ad lib) containing 0.03% pioglitazone in place of standard chow. Food weight was recorded in order to track consumption over the course of the experiment. At this time, rats were also given drinking water containing compound at the appropriate concentration. Full bottles were pre-weighed and recorded in order to track consumption over the course of the experiment. On day 1 and day 7, rats were warmed using a heating pad and lightly anesthetized using isoflurane (Butler Animal Health Services; Chicago, Ill.). Using a sterile scalpel blade, a small tail nick was made on the distal one third of the tail. Blood was collected in a heparinized microcapillary tube (FisherBrand; Pittsburg, Pa.), sealed with putty at one end and stored on ice until centrifugation (5000 rpm, 5 min). Plasma volume was determined using a Critocaps microhematocrit capillary tube reader card (Leica: Lot #7426). On day 7, rats, food and water bottles were again weighed and recorded, hematocrits were determined using blood collected by a tail nick. All data are presented as means +/−1 SEM. Statistical analyses were performed using GraphPad Prism statistical software. The mean differences among the treatment groups for all variables were tested for statistical significance using 2-way repeated measures ANOVAs. Additionally, differences were calculated for each animal (day 7−day 1), and resultant means were tested for statistical significance using 1-way ANOVAs.

[2] = test system: SD Rats Fed a Pioglitazone (0.03%) Containing Diet; assay: Body weight of SD rats fed a pioglitazone-containing diet for 7 days; type: in vivo, Sprague-Dawley rats; conditions: for Body Weight (g) DAY 1: day 1 (first day of pioglitazone 0.03% diet and compound in drinking water), amiloride 1.5 mg/kg; for Body Weight (g) DAY 1 / Body Weight (%) DELTA (percent weight gain) / Body Weight (g) DELTA (weight gain) / Body Weight (g) DAY 7 / Body Weight (%) DAY 7: TEST COMPOUND 4.5 mg/kg; for Body Weight (g) DAY 1 / Body Weight (%) DELTA (percent weight gain) / Body Weight (g) DELTA (weight gain) / Body Weight (g) DAY 7 / Body Weight (%) DAY 1 / Body Weight (%) DAY 7: mean ± SEM; for Body Weight (%) DELTA (percent weight gain): day 7 minus day 1, percent of day 1 value; for Body Weight (%) DELTA (percent weight gain) / Body Weight (g) DELTA (weight gain) / Body Weight (%) DAY 1 / Body Weight (%) DAY 7: pioglitazone 0.03% diet; for Body Weight (%) DELTA (percent weight gain) / Body Weight (g) DELTA (weight gain) / Body Weight (g) DAY 7 / Body Weight (%) DAY 7: amiloride 1.5 mg/kg in drinking water; for Body Weight (g) DELTA (weight gain): day 7 minus day 1; for Body Weight (g) DAY 7: day 7 of pioglitazone 0.03% diet; for Body Weight (%) DAY 1 / Body Weight (%) DAY 7: percent of day 1 value
Description: as §1, with “day” for “day 1 and day 7, rats were warmed using a heating pad and lightly anesthetized using isoflurane (Butler Animal Health Services; Chicago, Ill.). Using a sterile scalpel blade, a small tail nick was made on the distal one third of the tail. Blood was collected in a heparinized microcapillary tube (FisherBrand; Pittsburg, Pa.), sealed with putty at one end and stored on ice until centrifugation (5000 rpm, 5 min). Plasma volume was determined using a Critocaps microhematocrit capillary tube reader card (Leica: Lot #7426). On day”

[3] = one week, pioglitazone 20-25 mg/kg/day in diet

N=C(N)NC(=O)c1nc(Cl)c(N)nc1N [Amiloride, Amiloride HCl Hydrate]
Plasma expansion versus vehicle treated rats (in words) [1]: significance for the observed trend toward reversal of PPAR-γ induced expansion was not achieved
Plasma Volume % DAY 1 [1]: 52.7 ± 0.9%
Plasma Volume % DELTA [1]: 3.9 ± 0.7%
Plasma Volume % DAY 7 [1]: 56.6 ± 0.4 %
Body Weight (g) DAY 1 [2]: 370.0 ± 6.0 g
Body Weight (%) DELTA (percent weight gain) [2]: 10.8 ± 0.7%
Body Weight (g) DELTA (weight gain) [2]: 40.0 ± 2.8 g
Body Weight (g) DAY 7 [2]: 410.0 ± 7.7 g
Body Weight (%) DAY 1 [2]: 100 ± 0%
Body Weight (%) DAY 7 [2]: 110.8 ± 0.7 %

OC[C@H]1O[C@@H](c2ccc(Cl)c(Cc3ccc(OCCOC4CC4)cc3)c2)[C@H](O)[C@@H](O)[C@@H]1O [TEST COMPOUND, (2S,3R,4R,5S,6R)-2-(4-chloro-3-(4-(2-cyclopropoxyethoxy)benzyl)phenyl)-6-(hydroxymethyl)tetrahydro-2H-pyran-3,4,5-triol]
Plasma expansion versus vehicle treated rats (in words) [1]: significantly less plasma expansion than vehicle treated rats
Plasma Volume % DAY 1 [1]: 52.9 ± 0.5%
Plasma Volume % DELTA [1]: 1.8 ± 0.8 %
Plasma Volume % DAY 7 [1]: 54.7 ± 0.6 %
Body Weight (g) DAY 1 [2]: 371.7 ± 5.0 ^ g
Body Weight (%) DELTA (percent weight gain) [2]: 4.8% and 4.8 ± 1.3 %
Body Weight (g) DELTA (weight gain) [2]: 17.4 g and 17.5 ± 4.7 g
Body Weight (g) DAY 7 [2]: 389.2 ± 5.7 ^†† g
Body Weight (%) DAY 1 [2]: 100 ± 0 ^ %
Body Weight (%) DAY 7 [2]: 104.8 ± 1.3 ^†† %

CCc1ccc(CCOc2ccc(CC3SC(=O)NC3=O)cc2)nc1 (stereo not shown) [pioglitazone]
Plasma expansion induced by pioglitazone (in words) [1, 3]: significant plasma expansion
Increase in body weight induced by pioglitazone [2, 3]: approximately 45 g
